Data taken from ChEMBL document CHEMBL5154661, “Novel 2-phenyl-3-(Pyridin-2-yl) thiazolidin-4-one derivatives as potent inhibitors for proliferation of osteosarcoma cells in vitro and in vivo” (Eur J Med Chem, 2022).
In brackets after ≈: the same amount, converted by molar mass.

Tests used:
HOS = assay: Antiproliferative activity against human HOS cells assessed as cell growth inhibition at 1 uM measured after 72 hrs by CCK-8 assay relative to control; assay type: functional
HOS-TE85 [1] = assay: Antiproliferative activity against human MNNG/HOS cells assessed as cell growth inhibition measured after 72 hrs by CCK-8 assay; assay type: functional, cell-based; details: HOS-TE85, 72 h
SJSA-1 = assay: Antiproliferative activity against human SJSA-1 assessed as cell growth inhibition at 1 uM measured after 72 hrs by CCK-8 assay relative to control; assay type: functional
MG-63 = assay: Antiproliferative activity against human MG-63 cells assessed as cell growth inhibition at 1 uM measured after 72 hrs by CCK-8 assay relative to control; assay type: functional
HOS-TE85 [2] = assay: Antiproliferative activity against human MNNG/HOS cells assessed as cell growth inhibition at 1 uM measured after 72 hrs by CCK-8 assay relative to control; assay type: functional
143B = assay: Antiproliferative activity against human 143B cells assessed as cell growth inhibition at 1 uM measured after 72 hrs by CCK-8 assay relative to control; assay type: functional
U2OS = assay: Antiproliferative activity against human U2OS cells assessed as cell growth inhibition at 1 uM measured after 72 hrs by CCK-8 assay relative to control; assay type: functional
[3] = Microsomal stability in human liver microsomes assessed as intrinsic clearance at 0.1 uM incubated for 10 mins in presence of NADPH by LC-MS/MS analysis; assay type: ADME, Microsome
[4] = Microsomal stability in mouse liver microsomes assessed as intrinsic clearance at 0.1 uM incubated for 10 mins in presence of NADPH by LC-MS/MS analysis; assay type: ADME, Microsome
[5] = Kinetic solubility of compound at pH 6.8 by turbidimetry method; assay type: physicochemical; details: buffer, read-out: Kinetic_solubility
[6] = Microsomal stability in rat liver microsomes assessed as intrinsic clearance at 0.1 uM incubated for 10 mins in presence of NADPH by LC-MS/MS analysis; assay type: ADME, Microsome
[7] = Kinetic solubility of compound at pH 7.4 by turbidimetry method; assay type: physicochemical; details: buffer, read-out: Kinetic_solubility

CCOc1ccccc1N1C(=O)C(C)SC1c1cccc(C(=O)NCCCCc2ccccc2)c1 (stereo not drawn)
inhibition at 1 µM (HOS): 82%
IC50 (HOS-TE85 [1]): 71.6 nM
inhibition at 1 µM (SJSA-1): 85%
inhibition at 1 µM (MG-63): 92%
inhibition at 1 µM (HOS-TE85 [2]): 94%
inhibition at 1 µM (143B): 53%
inhibition at 1 µM (U2OS): 37%

COc1ccccc1N1C(=O)CSC1c1cc(F)cc(C(=O)NCCCCc2ccccc2)c1 (stereo not drawn)
IC50 (HOS-TE85 [1]): 40.9 nM
intrinsic clearance (CLint) [3]: 2076 mL/min/g
intrinsic clearance (CLint) [4]: 1434 mL/min/g
solubility kinetic [5]: 10 µM (≈ 4.79 µg/mL)
intrinsic clearance (CLint) [6]: 3259 mL/min/g
solubility kinetic [7]: 10 µM (≈ 4.79 µg/mL)

O=C(NCCCCc1ccccc1)c1cccc(C2SCC(=O)N2c2ccccc2)c1 (stereo not drawn)
inhibition at 1 µM (HOS): 55%
IC50 (HOS-TE85 [1]): 15.9 nM
inhibition at 1 µM (SJSA-1): 73%
inhibition at 1 µM (MG-63): 89%
inhibition at 1 µM (HOS-TE85 [2]): 96%
inhibition at 1 µM (143B): 60%
inhibition at 1 µM (U2OS): 68%

Cc1ccnc(N2C(=O)CS[C@H]2c2cccc(C(=O)NCCCCn3cccn3)c2)c1
IC50 (HOS-TE85 [1]): > 10000 nM

O=C(NCCCCc1ccccc1)c1cccc(C2SCC(=O)N2c2cccc(-c3c[nH]nn3)c2)c1 (stereo not drawn)
IC50 (HOS-TE85 [1]): 110 nM
intrinsic clearance (CLint) [3]: 261 mL/min/g
intrinsic clearance (CLint) [4]: 951 mL/min/g
solubility kinetic [5]: 20 µM (≈ 9.95 µg/mL)
intrinsic clearance (CLint) [6]: 742 mL/min/g
solubility kinetic [7]: 20 µM (≈ 9.95 µg/mL)

CCOC(=O)c1sc(N2C(=O)CSC2c2cccc(C(=O)NCCCCn3cccn3)c2)nc1C (stereo not drawn)
IC50 (HOS-TE85 [1]): 430 nM

O=C(NCCCCc1ccccc1)c1cccc(C2OCC(=O)N2c2cccc(F)c2)c1 (stereo not drawn)
inhibition at 1 µM (HOS): 29%
IC50 (HOS-TE85 [1]): 320 nM
inhibition at 1 µM (SJSA-1): 32%
inhibition at 1 µM (MG-63): 66%
inhibition at 1 µM (HOS-TE85 [2]): 87%
inhibition at 1 µM (143B): 0%
inhibition at 1 µM (U2OS): 25%

COc1c(F)cccc1N1C(=O)CSC1c1cccc(C(=O)NCCCCc2ccccc2)c1 (stereo not drawn)
inhibition at 1 µM (HOS): 9%
IC50 (HOS-TE85 [1]): 26.2 nM
inhibition at 1 µM (SJSA-1): 1%
inhibition at 1 µM (MG-63): 0%
inhibition at 1 µM (HOS-TE85 [2]): 12%
inhibition at 1 µM (143B): 5%
inhibition at 1 µM (U2OS): 12%

O=C(NCCCCn1cccn1)c1cccc(C2SCC(=O)N2c2ccncc2)c1 (stereo not drawn)
IC50 (HOS-TE85 [1]): > 1000 nM

O=C(NCCc1ccccc1)c1cccc(C2SCC(=O)N2c2ccc(C3CC3)cc2)c1 (stereo not drawn)
IC50 (HOS-TE85 [1]): > 1000 nM

O=C(NCCCCc1ccccc1)c1cccc(C2SCC(=O)N2c2ccc(N3CCOCC3)cc2)c1 (stereo not drawn)
IC50 (HOS-TE85 [1]): > 1000 nM

O=C(NCCCCc1ccccc1)c1cccc(C2SCC(=O)N2c2ccccn2)c1 (stereo not drawn)
IC50 (HOS-TE85 [1]): 19.7 nM
intrinsic clearance (CLint) [3]: 412 mL/min/g
intrinsic clearance (CLint) [4]: 644 mL/min/g
solubility kinetic [5]: 20 µM (≈ 8.63 µg/mL)
intrinsic clearance (CLint) [6]: 1482 mL/min/g
solubility kinetic [7]: 20 µM (≈ 8.63 µg/mL)

CC1SC(c2cccc(C(=O)NCCCCc3ccc(Cl)cc3)c2)N(c2cccc(C3CC3)c2)C1=O (stereo not drawn)
IC50 (HOS-TE85 [1]): 932 nM

O=C(NCCCCn1cccn1)c1cccc(C2SCC(=O)N2c2cc(Cl)ccn2)c1 (stereo not drawn)
IC50 (HOS-TE85 [1]): 36.4 nM

COc1ccccc1N1C(=O)CSC1c1cccc(C(=O)NCCCCN2C(=O)C=CC2=O)c1 (stereo not drawn)
IC50 (HOS-TE85 [1]): > 1000 nM

CC(C)(C)c1conc1N1C(=O)CSC1c1cccc(C(=O)NCCCCc2ccccc2)c1 (stereo not drawn)
IC50 (HOS-TE85 [1]): > 1000 nM

COc1ccccc1N1C(=O)CSC1c1cc(C)cc(C(=O)NCCCCc2ccccc2)c1 (stereo not drawn)
IC50 (HOS-TE85 [1]): 16.2 nM

CC1SC(c2cccc(C(=O)NCCCCc3ccccc3)c2)N(c2ccc(C3CC3)cc2)C1=O (stereo not drawn)
IC50 (HOS-TE85 [1]): 191 nM
intrinsic clearance (CLint) [3]: 2013 mL/min/g
intrinsic clearance (CLint) [4]: 3212 mL/min/g
solubility kinetic [5]: 10 µM (≈ 4.85 µg/mL)
intrinsic clearance (CLint) [6]: 3129 mL/min/g
solubility kinetic [7]: 2 µM (≈ 0.969 µg/mL)

COc1ccccc1N1C(=O)CSC1c1cccc(C(=O)NCCCCn2cncn2)c1 (stereo not drawn)
IC50 (HOS-TE85 [1]): > 1000 nM

O=C(NCCCCc1ccccc1)c1cc(F)cc(C2SCC(=O)N2c2ccccn2)c1 (stereo not drawn)
IC50 (HOS-TE85 [1]): 14.2 nM

O=C(NCCCCc1ccccc1)c1cccc(C2SCC(=O)N2c2cccc(C3CC3)c2)c1 (stereo not drawn)
IC50 (HOS-TE85 [1]): 299 nM
intrinsic clearance (CLint) [3]: 2069 mL/min/g
intrinsic clearance (CLint) [4]: 2943 mL/min/g
solubility kinetic [5]: 10 µM (≈ 4.71 µg/mL)
intrinsic clearance (CLint) [6]: 3543 mL/min/g
solubility kinetic [7]: 10 µM (≈ 4.71 µg/mL)

COc1ccccc1N1C(=O)CSC1c1cccc(C(=O)NCCCCN2CCN(C(=O)OC(C)(C)C)CC2)c1 (stereo not drawn)
IC50 (HOS-TE85 [1]): > 1000 nM

COc1ccccc1N1C(=O)CSC1c1cccc(C(=O)NCCCCc2ccc(Cl)cc2)c1 (stereo not drawn)
IC50 (HOS-TE85 [1]): 78.6 nM

CCC1(c2ccc(N3C(=O)CSC3c3cccc(C(=O)NCCCCn4cccn4)c3)cc2)CCC(=O)NC1=O (stereo not drawn)
IC50 (HOS-TE85 [1]): > 1000 nM

O=C(NCCCc1ccccc1)c1cccc(C2SCC(=O)N2c2ccc(C3CC3)cc2)c1 (stereo not drawn)
IC50 (HOS-TE85 [1]): > 1000 nM

O=C(NCCCCn1cccn1)c1cccc(C2SCC(=O)N2c2ccccn2)c1 (stereo not drawn)
IC50 (HOS-TE85 [1]): 60.3 nM
intrinsic clearance (CLint) [3]: 82.1 mL/min/g
intrinsic clearance (CLint) [4]: 304 mL/min/g
solubility kinetic [5]: 50 µM (≈ 21.1 µg/mL)
intrinsic clearance (CLint) [6]: 506 mL/min/g
solubility kinetic [7]: 50 µM (≈ 21.1 µg/mL)

COc1ccccc1N1C(=O)CSC1c1cc(C(=O)NCCCCc2ccccc2)cc(C2CC2)c1 (stereo not drawn)
IC50 (HOS-TE85 [1]): 23.5 nM

O=C(NCCCCn1cccn1)c1cccc(C2SCC(=O)N2c2cc(Br)ccn2)c1 (stereo not drawn)
IC50 (HOS-TE85 [1]): 105 nM

CC1SC(c2cccc(C(=O)NCCCCc3ccc(Cl)cc3)c2)N(c2ccc(C3CC3)cc2)C1=O (stereo not drawn)
IC50 (HOS-TE85 [1]): > 1000 nM

C#Cc1cccc(N2C(=O)CSC2c2cccc(C(=O)NCCCCc3ccccc3)c2)c1 (stereo not drawn)
IC50 (HOS-TE85 [1]): 149 nM
intrinsic clearance (CLint) [3]: 751 mL/min/g
intrinsic clearance (CLint) [4]: 1903 mL/min/g
solubility kinetic [5]: 10 µM (≈ 4.55 µg/mL)
intrinsic clearance (CLint) [6]: 1818 mL/min/g
solubility kinetic [7]: 10 µM (≈ 4.55 µg/mL)

O=C(NCCCCc1ccccc1)c1cccc(C2SCC(=O)N2c2nccs2)c1 (stereo not drawn)
IC50 (HOS-TE85 [1]): > 1000 nM

COc1ccccc1N1C(=O)CSC1c1cccc(C(=O)NCCCCn2cccn2)c1 (stereo not drawn)
IC50 (HOS-TE85 [1]): 91.7 nM

O=C(NCCCCn1cccn1)c1cccc(C2SCC(=O)N2c2cc(F)ccn2)c1 (stereo not drawn)
IC50 (HOS-TE85 [1]): 33.2 nM
intrinsic clearance (CLint) [3]: 116.4 mL/min/g
intrinsic clearance (CLint) [4]: 397 mL/min/g
solubility kinetic [5]: 50 µM (≈ 22 µg/mL)
intrinsic clearance (CLint) [6]: 1198 mL/min/g
solubility kinetic [7]: 50 µM (≈ 22 µg/mL)

O=C(NCCCCc1ccccc1)c1cccc(C2SCC(=O)N2c2cnccn2)c1 (stereo not drawn)
IC50 (HOS-TE85 [1]): > 1000 nM

CCN(CC)c1ccc(N2C(=O)CSC2c2cccc(C(=O)NCCCCc3ccccc3)c2)cc1 (stereo not drawn)
IC50 (HOS-TE85 [1]): > 1000 nM

O=C(NCCCCn1cccn1)c1cccc(C2SCC(=O)N2c2cccc(C3CC3)c2)c1 (stereo not drawn)
IC50 (HOS-TE85 [1]): 298 nM

C#Cc1cc(C(=O)NCCCCc2ccccc2)cc(C2SCC(=O)N2c2ccccc2OC)c1 (stereo not drawn)
IC50 (HOS-TE85 [1]): 40.8 nM
intrinsic clearance (CLint) [3]: 1727 mL/min/g
intrinsic clearance (CLint) [4]: 2490 mL/min/g
solubility kinetic [5]: 10 µM (≈ 4.85 µg/mL)
intrinsic clearance (CLint) [6]: 2204 mL/min/g
solubility kinetic [7]: 10 µM (≈ 4.85 µg/mL)

O=C(NCCCCn1cccn1)c1cccc(C2SCC(=O)N2c2cccnc2)c1 (stereo not drawn)
IC50 (HOS-TE85 [1]): > 1000 nM

COc1ccccc1N1C(=O)CSC1c1cccc(C(=O)NCCCCn2ccc3ccccc32)c1 (stereo not drawn)
IC50 (HOS-TE85 [1]): 286 nM

COc1ccccc1N1C(=O)CSC1c1cccc(C(=O)NCCCCc2cccs2)c1 (stereo not drawn)
IC50 (HOS-TE85 [1]): 46 nM

CC1SC(c2cccc(C(=O)NCCCCc3ccccc3)c2)N(c2cccc(C3CC3)c2)C1=O (stereo not drawn)
IC50 (HOS-TE85 [1]): 295 nM

COc1ccc(F)cc1N1C(=O)CSC1c1cccc(C(=O)NCCCCn2cccn2)c1 (stereo not drawn)
IC50 (HOS-TE85 [1]): 97.3 nM
intrinsic clearance (CLint) [3]: 421 mL/min/g
intrinsic clearance (CLint) [4]: 1312 mL/min/g
solubility kinetic [5]: 50 µM (≈ 23.4 µg/mL)
intrinsic clearance (CLint) [6]: 1472 mL/min/g
solubility kinetic [7]: 50 µM (≈ 23.4 µg/mL)

O=C(NCCCCc1ccccc1)c1cccc(C2SCC(=O)N2c2ccc(-c3ccccc3)cc2)c1 (stereo not drawn)
IC50 (HOS-TE85 [1]): > 1000 nM

O=C(NCCCCc1ccccc1)c1cccc(C2SCC(=O)N2c2ccc(C3CC3)cc2)c1 (stereo not drawn)
IC50 (HOS-TE85 [1]): 217 nM
intrinsic clearance (CLint) [3]: 811 mL/min/g
intrinsic clearance (CLint) [4]: 2962 mL/min/g
solubility kinetic [5]: 2 µM (≈ 0.941 µg/mL)
intrinsic clearance (CLint) [6]: 2275 mL/min/g
solubility kinetic [7]: 2 µM (≈ 0.941 µg/mL)
